Reference: US6475531B1, “Safe botanical drug for treatment and prevention of influenza and increasing immune function” (priority 2001, dated 2002)
In brackets after ≈: the same amount, converted by molar mass.

Tests used:
Assay type in all cases: cell-based, influenza A viruses
[1] = system: A/Beijing/32/92 (H3N2); experiment: Plaque inhibition assay in MDCK cells; details: Influenza A virus
[2] = system: A/Singapore/1/75 (H2N2); experiment: microbe, parasite or virus in culture; details: Influenza A virus, H2N2, MDCK
[3] = system: A/Brazil/11/78 (H1N1); experiment: Plaque inhibition assay in MDCK cells; details: Influenza A virus
[4] = system: A/England/939/69; experiment: Plaque inhibition assay in MDCK cells; details: Influenza A virus

| Compound | IC50 [1] [µg/mL] | IC50 [2] [µg/mL] | IC50 [3] [µg/mL] | IC50 [4] [µg/mL] |
| --- | --- | --- | --- | --- |
| NC12CC3CC(CC(C3)C1)C2 [Amantadine] | 25 (≈ 165 µM) | 11 (≈ 72.7 µM) | 38 (≈ 251 µM) | 21 (≈ 139 µM) |
| NC(=O)c1ncn([C@@H]2O[C@H](CO)[C@@H](O)[C@H]2O)n1 [Ribavirin] | 90 (≈ 369 µM) | 82 (≈ 336 µM) | 56 (≈ 229 µM) | 46 (≈ 188 µM) |
